These are literature values, as cited in patent CN115177586A, “一种卡泊三醇组合物” (Jiangsu Zhiyuan Pharmaceutical Co ltd, priority 2022, dated 2022).

The conditions of the data set: not told.

In the case of `C=C1/C(=C\C=C2/CCC[C@]3(C)[C@@H]([C@H](C)/C=C/[C@@H](O)C4CC4)CC[C@@H]23)C[C@@H](O)C[C@@H]1O` [卡泊三醇], the permeability entry is given as “渗透性极差”.
